Source: US20250186452A1, “NOVEL USE OF QUINOLINE COMPOUND” (TARAPEUTICS SCIENCE INC., priority 2022, published 2025)

Assays:
4T1 cells = assay: In vivo efficacy in 4T1 cell tumor transplantation mouse model; conditions: 4T1 model
Method: In this example, the experimental effects of Compound 2 and the control compound PLX3397 (purchased from MedChem Express, China) in MC38 and 4T1 mouse models were tested respectively.
The experimental procedure was as follows: • (1) C57BL/6J male mice for use as MC38 transplanted tumor model and Balb/c male mice for use as 4T1 transplanted tumor model, which were 6 weeks old, were purchased from GemPharmatech Co., Ltd, Jiangsu. All the above mice were raised in an SPF laboratory, and the drinking water and padding had been sterilized by high pressure sterilization. All operations related to mice were performed under sterile conditions. • (2) On day 0, approximately 1×10^6 MC38 cells (purchased from ATCC) were injected subcutaneously into the left back of each of the C57BL/6J mice, and approximately 1×10^6 4T1 cells (purchased from ATCC) were injected subcutaneously into the left back of each of the Balb/c mice. • (3) For the MC38 mouse model, starting from the 6th day, the corresponding mice were orally administered with methylcellulose (HKI) (purchased from China National Pharmaceutical Group Corporation) solvent once a day (5 mice); Compound 2 at a dose of 50 mg/kg mouse weight once a day (5 mice); PLX3397 at a dose of 50 mg/kg mouse weight once a day (5 mice). For the 4T1 mouse model, starting from the 6th day, the corresponding mice were orally administered with 10% HS-15 (purchased from BASF, Germany) solvent (5 mice); Compound 2 at a dose of 50 mg/kg mouse weight once a day (5 mice); PLX3397 at a dose of 50 mg/kg mouse weight once a day (5 mice). • (4) Starting from the 6th day, the length/width of the subcutaneous tumor was measured with a vernier caliper every day, and the weight of the mice was recorded every day to determine the effects of Compound 2 and control compound PLX3397 on the weight of mice in different model mice. The results are shown in FIGS. 3 and 6. • (5) The growth trends of subcutaneous tumors in mice of different models were statistically analyzed. The tumor volume was calculated using the following method: length×width×width/2 mm^3. The results are shown in FIGS. 4 and 7. • (6) Isolation of tumor-infiltrating lymphocytes: Tumor tissue was first minced (tissue block less than 1 mm^3) with a surgical blade, resuspended in 6 ml of digestion solution (collagenase IV and 0.005% DNaseI enzyme, both purchased from Sigma, USA), and the mixture was transferred to a 15-ml centrifuge tube. The centrifuge tube was then placed in a shaker at 37° C. and digested with shaking at 220 r/min for 2 hours. The cells were sieved through a 200-mesh sieve and collected in a 50-ml centrifuge tube, and centrifuged at 1500 rpm for 10 minutes. The supernatant was then discarded, and 10 ml of DMEM medium (10% FBS) (purchased from GIBCO, USA) was added to the tube to terminate the digestion. The tube was placed in a centrifuge, and centrifuged at 1500 rpm for another 10 minutes. The supernatant was discarded. At the same time, Percoll separation solution (purchased from Millipore, USA) was prepared, and 90% Percoll separation working solution was prepared using 10×PBS. To a 15 ml centrifuge tube, 3-4 ml of 70% Percoll separation solution was added. The cells were resuspended in 4 ml of 40% Percoll separation solution, and the cell mixture was added to the 70% Percoll separation solution. The centrifuge tube was placed in a centrifuge and subjected to density gradient centrifugation at 25° C., 1260 g, for 30 minutes (speed up 5, speed down 0). After the centrifugation, the centrifuge tube was placed on a centrifuge tube rack, the middle leukocyte layer was aspirated with a pipette, and added to 10 ml of PBS, they were mixed well and placed in a centrifuge, and centrifuged at 1500 rpm. The cell supernatant was discarded after 10 min and the cells were resuspended in 5 ml of PBS, centrifuged at 1500 rpm for another 10 min, and the washing process was repeated once. The cells obtained were leukocytes in the tumor tissue. […]

RAW264.7 cells = assay: Cell transformation experiment: CD86 RNA level in M2-induced RAW264.7 cells (qPCR); type: cell-based, mouse
Method: RAW264.7 cells (purchased from ATCC, USA) were sucked up and down with a pipette, and the cells were added to a centrifuge tube, placed in a centrifuge, and centrifuged at 800 rpm for 4 minutes.
In this experiment, an RNA extraction kit (purchased from Tiangen Biochemical Technology, China, catalog number: DP451) was used. RNA extraction was performed according to the instructions, and the concentration of RNA in the sample was detected using a NanoDrop nucleic acid concentration meter, and the RNA solution was diluted to the same concentration.
In this experiment, TakaRa One Step TB Green® PrimeScript™ PLUS RT-PCR Kit (purchased from TaKaRa Bio, catalog number: RR096A) was used, which contained the following components:
The procedure was as follows: • (1) The PCR primers were taken out and placed on ice. The primer sequences used were as follows: […]
• (3) After the RT-PCR reaction reagents were prepared, they were mixed, and the mixture was dispensed into 8-Strip Tubes. 2 μL of RNA sample was added to the tube, the bottom of the tube was gently tapped to mix the solution, and the tube was centrifuged in a centrifuge for a while. • (4) The fluorescence quantitative PCR instrument was turned on. […] Roche analysis software LightCycler® 96 SW 1.1 was used to analyze the data, and the analyzed data was imported into Graphpad Prism7.0 for drawing.

For `COc1cc2nccc(Oc3ccc(NC(=O)Cc4ccc(Cl)c(C(F)(F)F)c4)cc3)c2cc1OC` [Example 2, N-(4-((6,7-dimethoxyquinolin-4-yl)oxy)phenyl)-2-(4-chloro-3-(trifluoromethyl)phenyl)-acetamide], the “toxicity (mouse body weight)” value (4T1 cells; 50 mg/kg oral once a day, FIG. 6) was “no obvious toxicity”, the “inhibition effect of mouse tumors” value (4T1 cells; 50 mg/kg oral once a day, FIG. 7) was “good inhibition effect of mouse tumors” and the “inhibitory effect on mouse tumors compared with PLX3397” value (4T1 cells; 50 mg/kg oral once a day, as days of administration increased) was “superior to the effect of the control compound PLX3397”. For the same compound, the “proportion of M1 macrophages around the tumor versus solvent group” value (4T1 cells; 50 mg/kg oral, flow cytometry, FIG. 8) was “much higher than that in the solvent group”, the “proportion of M1 macrophages in the tumor microenvironment versus PLX3397 group” value (4T1 cells; same dose 50 mg/kg, FIG. 8) was “higher than that of the PLX3397 group” and the “effect on CD86 RNA level compared with positive controls” value (RAW264.7 cells; 1 μM, same dose as PLX3397 and BLZ945, FIG. 2) was “better for Compound 2 at 1 μM than positive controls PLX3397 and BLZ945”. For the same compound, the “RNA level of CD86” value (RAW264.7 cells; RAW264.7 induced to M2, treated 72 hours, serial dilutions, FIG. 2) was “increased in a dose-dependent manner”.
